The values that follow are results of earlier work, collected in PMC4860011 (Biochemistry, 2015).

The target of the series is bsNOS (Bacillus subtilis, UniProt O34453). To be noted: read-out: KD of imidazole; used to convert KS,app to KS.
Chain of bsNOS (O34453 whole entry): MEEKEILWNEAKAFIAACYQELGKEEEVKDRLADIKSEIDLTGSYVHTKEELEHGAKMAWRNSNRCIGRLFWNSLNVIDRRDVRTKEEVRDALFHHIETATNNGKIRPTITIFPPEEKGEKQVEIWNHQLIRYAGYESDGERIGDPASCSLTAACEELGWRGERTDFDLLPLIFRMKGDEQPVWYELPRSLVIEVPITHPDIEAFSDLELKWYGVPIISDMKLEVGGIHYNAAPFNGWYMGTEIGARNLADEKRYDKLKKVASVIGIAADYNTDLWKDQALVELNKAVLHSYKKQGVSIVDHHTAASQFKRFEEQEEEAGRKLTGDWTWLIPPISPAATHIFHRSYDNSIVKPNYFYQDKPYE

For the compound `c1c[nH]cn1` [imidazole], the Kd is 384 µM.
